From patent US8299022B2, “Analogs of ghrelin substituted at the N-terminal” (IPSEN Pharma S.A.S., priority 2006, dated 2012)
Like-named read-outs stand apart in the source and are kept apart here. * marks the point of attachment. Octanoyl = CCCCCCCC(=O)*

Key:
[1] = Rat plasma ½ life (stability in plasma in a rat model); format: in vitro ADME
Protocol: A selection of the preferred embodiments listed above was analyzed to determine stability, i.e. ½ life in plasma in a rat model using techniques known to those skilled in the art.

human GSH receptor = target: T1, human GSH receptor (Homo sapiens, UniProt Q92847); assay: In vitro GSH receptor mediated intracellular iCa2+ mobilization (Fura-2AM, CHO-K1 cells); format: cell-based; settings: CHO-K1 cells expressing the human receptor, 37° C.
T1 construct: The full length human GHS-R was subcloned into the mammalian expression vector pcDNA 3.1; expressed in transfected cells
T1 sequence (Q92847 whole entry): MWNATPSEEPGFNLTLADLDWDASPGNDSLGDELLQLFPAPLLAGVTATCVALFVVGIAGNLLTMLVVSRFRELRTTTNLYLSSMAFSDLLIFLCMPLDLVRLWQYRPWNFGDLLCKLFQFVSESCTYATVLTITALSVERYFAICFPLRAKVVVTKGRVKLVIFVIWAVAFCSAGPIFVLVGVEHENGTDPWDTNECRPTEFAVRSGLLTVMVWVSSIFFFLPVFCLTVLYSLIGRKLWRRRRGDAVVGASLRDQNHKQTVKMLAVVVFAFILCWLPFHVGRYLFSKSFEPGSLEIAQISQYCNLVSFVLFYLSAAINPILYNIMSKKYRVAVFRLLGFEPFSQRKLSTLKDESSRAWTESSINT
Protocol: 2A. In vitro GSH Receptor Mediated Intracellular iCa^2+Mobilization
The foregoing CHO-K1 cells expressing the human GSH receptor were harvested by incubating in a 0.3% EDTA/phosphate buffered saline solution at 25° C.; the cells were then washed 2 times by centrifugation. The washed cells were resuspended in Hank's buffered saline solution (HBSS) for loading of the fluorescent Ca^2+ indicator Fura-2AM. Cell suspensions of approximately 10^6 cells/ml were incubated with 2 μM Fura-2AM for about 30 minutes at about 25° C. Unloaded Fura-2AM was removed by centrifugation twice in HBSS and the final suspensions were transferred to a spectrofluorometer (model Hitachi F-2000® Tokyo, Japan) equipped with a magnetic stirring mechanism and a temperature-regulated cuvette holder. After equilibration to 37° C., the ghrelin analogs were added for measurement of intracellular Ca^2+ mobilization. The excitation and emission wavelengths were 340 and 510 nm, respectively. An increase in the amount of Ca^2+ measured was indicative of agonist activity of a tested peptide while a decrease in the amount (or lack of) Ca^2+ measure was indicative of antagonist activity of a tested peptide.

[2] = rat, in vivo; cited from earlier work
[3] = human, in vivo; cited from earlier work

Molecule	Rat Plasma ½ life [1]	agonist/antagonist activity at the ghrelin receptor (intracellular Ca2+ mobilization) (human GSH receptor)	apparent half-life of exogenous ghrelin [2]	apparent half-life of exogenous ghrelin [3]
CCCCCCNC(=O)CC[C@H](NC(=O)C(C)(C)NC(=O)C1CCN(C(C)=O)CC1)C(=O)N[C@@H](Cc1ccccc1)C(=O)N[C@@H](CC(C)C)C(=O)N[C@@H](CO)C(=O)N1CCC[C@H]1C(=O)N[C@@H](CCC(=O)O)C(=O)N[C@@H](Cc1c[nH]cn1)C(=O)NC(C)(C)C(=O)N[C@@H](CCCNC(=N)N)C(=O)N[C@H](C(=O)N[C@@H](CCC(N)=O)C(=O)N[C@@H](CCC(N)=O)C(=O)N[C@@H](CCCNC(=N)N)C(=O)N[C@@H](CCCCN)C(=O)N[C@@H](CCC(=O)O)C(=O)N[C@@H](CO)C(=O)N[C@@H](CCCCN)C(=O)N[C@@H](CCCCN)C(=O)N1CCC[C@H]1C(=O)N1CCC[C@H]1C(=O)N[C@@H](C)C(=O)N[C@@H](CCCCN)C(=O)N[C@@H](CC(C)C)C(=O)N[C@@H](CCC(N)=O)C(=O)N1CCC[C@H]1C(=O)N[C@@H](CCCNC(=N)N)C(N)=O)C(C)C [Example 1, (Ac-Inp^1, Aib^2, 10, Glu(NH-hexyl)^3)hGhrelin(1-28)-NH2]	9.4 h	antagonistic activity		
CCCCCCNC(=O)CC[C@H](NC(=O)C(C)(C)NC(=O)C1CCNCC1)C(=O)N[C@@H](Cc1ccccc1)C(=O)N[C@@H](CC(C)C)C(=O)N[C@@H](CO)C(=O)N1CCC[C@H]1C(=O)N[C@@H](CCC(=O)O)C(=O)N[C@@H](Cc1c[nH]cn1)C(=O)NC(C)(C)C(=O)N[C@@H](CCCNC(=N)N)C(=O)N[C@H](C(=O)N[C@@H](CCC(N)=O)C(=O)N[C@@H](CCC(N)=O)C(=O)N[C@@H](CCCNC(=N)N)C(=O)N[C@@H](CCCCN)C(=O)N[C@@H](CCC(=O)O)C(=O)N[C@@H](CO)C(=O)N[C@@H](CCCCN)C(=O)N[C@@H](CCCCN)C(=O)N1CCC[C@H]1C(=O)N1CCC[C@H]1C(=O)N[C@@H](C)C(=O)N[C@@H](CCCCN)C(=O)N[C@@H](CC(C)C)C(=O)N[C@@H](CCC(N)=O)C(=O)N1CCC[C@H]1C(=O)N[C@@H](CCCNC(=N)N)C(N)=O)C(C)C [Example 3, (Inp^1, Aib^2, 10, Glu(NH-hexyl)^3)hGhrelin(1-28)-NH2]	10.6 h	antagonistic activity		
H-Gly-Ser-Ser-Phe-Leu-Ser-Pro-Glu-His-Gln-Arg-Val-Gln-Gln-Arg-Lys-Glu-Ser-Lys-Lys-Pro-Pro-Ala-Lys-Leu-Gln-Pro-Arg-NH2 (H-GSS(Octanoyl)FLSPEHQRVQQRKESKKPPAKLQPR-NH2; listed as Homo sapiens) [ghrelin]			30 min	10 min
